{"source": "PubChem BioAssay AID1259407", "about": "(Chemical Carcinogenesis Research Information System (CCRIS), 2018)", "tested_on": "CCRIS mutagenicity, Ames/micronucleus/aberration tests", "test": "CCRIS mutagenicity studies", "key": {"[1]": {"conditions": "Test System: AMES SALMONELLA TYPHIMURIUM, Strain/Indicator: TA97, Metabolic Activation: HAMSTER, LIVER, S-9, AROCLOR 1254 (10%), Method: PREINCUBATION"}, "[2]": {"conditions": "Test System: AMES SALMONELLA TYPHIMURIUM, Strain/Indicator: TA97, Metabolic Activation: NONE, Method: PREINCUBATION"}, "[3]": {"conditions": "Test System: AMES SALMONELLA TYPHIMURIUM, Strain/Indicator: TA97, Metabolic Activation: RAT, LIVER, S-9, AROCLOR 1254 (10%), Method: PREINCUBATION"}, "[4]": {"conditions": "Test System: AMES SALMONELLA TYPHIMURIUM, Strain/Indicator: TA98, Metabolic Activation: RAT, LIVER, S-9, AROCLOR 1254 (10%), Method: PREINCUBATION"}, "[5]": {"conditions": "Test System: AMES SALMONELLA TYPHIMURIUM, Strain/Indicator: TA100, Metabolic Activation: HAMSTER, LIVER, S-9, AROCLOR 1254 (10%), Method: PREINCUBATION"}, "[6]": {"conditions": "Test System: AMES SALMONELLA TYPHIMURIUM, Strain/Indicator: TA100, Metabolic Activation: NONE, Method: PREINCUBATION"}, "[7]": {"conditions": "Test System: AMES SALMONELLA TYPHIMURIUM, Strain/Indicator: TA100, Metabolic Activation: RAT, LIVER, S-9, AROCLOR 1254 (10%), Method: PREINCUBATION"}, "[8]": {"conditions": "Test System: AMES SALMONELLA TYPHIMURIUM, Strain/Indicator: TA1535, Metabolic Activation: HAMSTER, LIVER, S-9, AROCLOR 1254 (10%), Method: PREINCUBATION"}, "[9]": {"conditions": "Test System: AMES SALMONELLA TYPHIMURIUM, Strain/Indicator: TA1535, Metabolic Activation: NONE, Method: PREINCUBATION"}, "[10]": {"conditions": "Test System: AMES SALMONELLA TYPHIMURIUM, Strain/Indicator: TA1535, Metabolic Activation: RAT, LIVER, S-9, AROCLOR 1254 (10%), Method: PREINCUBATION"}, "[11]": {"conditions": "Test System: AMES SALMONELLA TYPHIMURIUM, Strain/Indicator: TA98, Metabolic Activation: NONE, Method: PREINCUBATION"}, "[12]": {"conditions": "Test System: AMES SALMONELLA TYPHIMURIUM, Strain/Indicator: TA100, Metabolic Activation: NONE, Method: STANDARD PLATE"}, "[13]": {"conditions": "Test System: AMES SALMONELLA TYPHIMURIUM, Strain/Indicator: TA100, Metabolic Activation: RAT, LIVER, S-9, AROCLOR 1254, Method: STANDARD PLATE"}}, "note": "Calls of active or inactive are those of the source. No rule for the calls is given here."}
{"smiles": "Cc1cc(N=Nc2c(O)ccc3ccccc23)c(S(=O)(=O)O)cc1Cl", "values": [{"measurement": "mutagenic call", "setting": "End Point: IN VITRO CHROMOSOMAL ABERRATIONS, Test System: CHO CELLS, Metabolic Activation: NONE", "result": "inactive; negative"}, {"measurement": "mutagenic call", "setting": "End Point: IN VITRO CHROMOSOMAL ABERRATIONS, Test System: CHO CELLS, Metabolic Activation: RAT, LIVER, S-9, AROCLOR 1254", "result": "inactive; negative"}, {"measurement": "mutagenic call", "setting": "[1]", "result": "inactive; negative"}, {"measurement": "mutagenic call", "setting": "[2]", "result": "inactive; negative"}, {"measurement": "mutagenic call", "setting": "[3]", "result": "inactive; negative"}, {"measurement": "mutagenic call", "setting": "Test System: AMES SALMONELLA TYPHIMURIUM, Strain/Indicator: TA98, Metabolic Activation: HAMSTER, LIVER, S-9, AROCLOR 1254 (5, 10 OR 30%), Method: PREINCUBATION", "result": "inactive; negative"}, {"measurement": "mutagenic call", "setting": "[4]", "result": "inactive; negative"}, {"measurement": "mutagenic call", "setting": "[5]", "result": "inactive; negative"}, {"measurement": "mutagenic call", "setting": "[6]", "result": "inactive; negative"}, {"measurement": "mutagenic call", "setting": "[7]", "result": "inactive; negative"}, {"measurement": "mutagenic call", "setting": "Test System: AMES SALMONELLA TYPHIMURIUM, Strain/Indicator: TA100, Metabolic Activation: RAT, LIVER, S-9, AROCLOR 1254, FLAVIN MONONUCLEOTIDE, Method: PREINCUBATION (PRIVAL METHOD)", "result": "inactive; negative"}, {"measurement": "mutagenic call", "setting": "Test System: AMES SALMONELLA TYPHIMURIUM, Strain/Indicator: TA100, Metabolic Activation: RAT, LIVER, S-9, AROCLOR 1254, Method: PREINCUBATION", "result": "inactive; negative"}, {"measurement": "mutagenic call", "setting": "[8]", "result": "inactive; negative"}, {"measurement": "mutagenic call", "setting": "[9]", "result": "inactive; negative"}, {"measurement": "mutagenic call", "setting": "[10]", "result": "inactive; negative"}, {"measurement": "mutagenic call", "setting": "Test System: AMES SALMONELLA TYPHIMURIUM, Strain/Indicator: TA1537, Metabolic Activation: NONE, Method: PREINCUBATION", "result": "inactive; negative"}]}
{"smiles": "c1ccc2c(c1)ccc1ccccc12", "values": [{"measurement": "mutagenic call", "setting": "[1]", "result": "inactive; negative"}, {"measurement": "mutagenic call", "setting": "[2]", "result": "inactive; negative"}, {"measurement": "mutagenic call", "setting": "Test System: AMES SALMONELLA TYPHIMURIUM, Strain/Indicator: TA97, Metabolic Activation: NONE, Method: STANDARD PLATE", "result": "inactive; negative"}, {"measurement": "mutagenic call", "setting": "[3]", "result": "inactive; negative"}, {"measurement": "mutagenic call", "setting": "Test System: AMES SALMONELLA TYPHIMURIUM, Strain/Indicator: TA97, Metabolic Activation: RAT, LIVER, S-9, PCB, Method: STANDARD PLATE", "result": "active; positive"}, {"measurement": "mutagenic call", "setting": "Test System: AMES SALMONELLA TYPHIMURIUM, Strain/Indicator: TA98, Metabolic Activation: HAMSTER, LIVER, S-9, AROCLOR 1254 (10%), Method: PREINCUBATION", "result": "inactive; negative"}, {"measurement": "mutagenic call", "setting": "[11]", "result": "inactive; negative"}, {"measurement": "mutagenic call", "setting": "Test System: AMES SALMONELLA TYPHIMURIUM, Strain/Indicator: TA98, Metabolic Activation: NONE, Method: STANDARD PLATE", "result": "inactive; negative"}, {"measurement": "mutagenic call", "setting": "[4]", "result": "inactive; negative"}, {"measurement": "mutagenic call", "setting": "Test System: AMES SALMONELLA TYPHIMURIUM, Strain/Indicator: TA98, Metabolic Activation: RAT, LIVER, S-9, AROCLOR 1254, Method: STANDARD PLATE", "result": "inactive; negative"}, {"measurement": "mutagenic call", "setting": "Test System: AMES SALMONELLA TYPHIMURIUM, Strain/Indicator: TA98, Metabolic Activation: RAT, LIVER, S-9, PCB, Method: STANDARD PLATE", "result": "inactive; negative"}, {"measurement": "mutagenic call", "setting": "Test System: AMES SALMONELLA TYPHIMURIUM, Strain/Indicator: TA100, Metabolic Activation: HAMSTER, LIVER, S-9, AROCLOR 1254 (5 OR 30%), Method: PREINCUBATION", "result": "inactive; negative"}, {"measurement": "mutagenic call", "setting": "[5]", "result": "inactive; negative"}, {"measurement": "mutagenic call", "setting": "[6]", "result": "inactive; negative"}, {"measurement": "mutagenic call", "setting": "[12]", "result": "inactive; negative"}, {"measurement": "mutagenic call", "setting": "Test System: AMES SALMONELLA TYPHIMURIUM, Strain/Indicator: TA100, Metabolic Activation: RAT, LIVER, S-9, AROCLOR 1254 (5%), Method: PREINCUBATION", "result": "inactive; negative"}, {"measurement": "mutagenic call", "setting": "[7]", "result": "inactive; negative"}, {"measurement": "mutagenic call", "setting": "[13]", "result": "active; positive"}, {"measurement": "mutagenic call", "setting": "Test System: AMES SALMONELLA TYPHIMURIUM, Strain/Indicator: TA100, Metabolic Activation: RAT, LIVER, S-9, PCB, Method: STANDARD PLATE", "result": "inactive; negative"}, {"measurement": "mutagenic call", "setting": "[8]", "result": "inactive; negative"}, {"measurement": "mutagenic call", "setting": "[9]", "result": "inactive; negative"}, {"measurement": "mutagenic call", "setting": "[10]", "result": "inactive; negative"}, {"measurement": "mutagenic call", "setting": "Test System: AMES SALMONELLA TYPHIMURIUM, Strain/Indicator: TA1535, Metabolic Activation: RAT, LIVER, S-9, AROCLOR 1254, Method: STANDARD PLATE", "result": "active; positive"}, {"measurement": "mutagenic call", "setting": "Test System: E. COLI, Strain/Indicator: WP2 UVRA, Metabolic Activation: HAMSTER, LIVER, S-9, AROCLOR 1254, Method: STANDARD PLATE", "result": "inactive; negative"}, {"measurement": "mutagenic call", "setting": "Test System: E. COLI, Strain/Indicator: WP2 UVRA, Metabolic Activation: HAMSTER, LIVER, S-9, Method: STANDARD PLATE", "result": "inactive; negative"}, {"measurement": "mutagenic call", "setting": "Test System: E. COLI, Strain/Indicator: WP2 UVRA, Metabolic Activation: MOUSE, LIVER, S-9, AROCLOR 1254, Method: STANDARD PLATE", "result": "inactive; negative"}, {"measurement": "mutagenic call", "setting": "Test System: E. COLI, Strain/Indicator: WP2 UVRA, Metabolic Activation: MOUSE, LIVER, S-9, Method: STANDARD PLATE", "result": "inactive; negative"}, {"measurement": "mutagenic call", "setting": "Test System: E. COLI, Strain/Indicator: WP2 UVRA, Metabolic Activation: NONE, Method: STANDARD PLATE", "result": "inactive; negative"}, {"measurement": "mutagenic call", "setting": "Test System: E. COLI, Strain/Indicator: WP2 UVRA, Metabolic Activation: RAT, LIVER, S-9, AROCLOR 1254, Method: STANDARD PLATE", "result": "inactive; negative"}, {"measurement": "mutagenic call", "setting": "Test System: E. COLI, Strain/Indicator: WP2 UVRA, Metabolic Activation: RAT, LIVER, S-9, Method: STANDARD PLATE", "result": "inactive; negative"}, {"measurement": "mutagenic call", "setting": "Test System: UDS RAT HEPATOCYTES, Strain/Indicator: BROMODEOXYURIDINE INCORP, Metabolic Activation: NONE, Method: FLOW CYTOMETRIC ANALYSIS", "result": "inactive; negative"}]}
{"smiles": "Cc1ncc([N+](=O)[O-])n1CC(=O)O", "values": [{"measurement": "mutagenic call", "setting": "[12]", "result": "active; positive"}, {"measurement": "mutagenic call", "setting": "[13]", "result": "inactive; negative"}]}
{"smiles": "O=[N+]([O-])c1cc(-c2ccccc2)ccc1O", "values": [{"measurement": "mutagenic call", "setting": "[11]", "result": "inactive; negative"}]}
